Test results published in patent US12623942B2, “Method for extracting salts and temperature- regenerated extracting composition” (ADIONICS, priority 2016, dated 2026).
Converted amounts (≈) assume the structure as drawn.

What was measured:
[1] = Solubility in water; type: physicochemical
From the text: The hydrophoby or the solubility in water of a compound may be measured by standard methods and, especially, by UV/visible spectroscopy.

[2] = Extraction of salts from a brine, four extraction steps, total salinity; details: 0.4M CEM1 + 1.2M ASM9 in 12ClPh; for Salinity progression at RT, Total: Org./Water 3, brine 180 g/Liter
From the text: (§1) The extracting composition is as follows: 0.4 Mol/L of CEM1 (cf example 1, of CAS #: 114155-16-7), completed with 1.2 Mol/L of ASM9 of formula: […]
(§2) The brine is a water having a high salinity, at 180 g/Liter (that is to say 5.6 Mol/L), composed of sodium, potassium, calcium, magnesium and chloride ions in the proportions of table II below. The saline water to be treated was contacted with a triple relative volume of this extracting composition in order to get close to the operating conditions.
(§3) It is shown in table II below the concentrations, in mMol/L of water, of each of the ions before and after each of the four extraction steps, carried out at room temperature (RT).

[3] = Selective extraction from a binary mixture NaCl/CaCl2; details: 0.1 mol/L CEM + 2.4 mol/L ASM9 in 1,2-dichlorobenzene; brine 0.05 mol/L NaCl and CaCl2 each; RT; molar %
From the text: A brine containing an equimolar mixture of salts, 0.05 mol/L of NaCl and CaCl2 each, which was made as described above, was contacted with two extracting compositions, one of which according to the invention.
Each extracting composition comprises 0.1 mol/L of CEM
[drawing 53] and 2.4 mol/L of ASM9 in 1,2-dichlorobenzene.
A brine containing a mixture of NaCl and CaCl2 is made as described above to obtain the following initial saline concentrations in a mixture: 0.2 Mol/L of NaCl and 0.03 Mol/L of CaCl2. The extracting resin, is composed of 0.1 Mol/L of CEM2, 3.52 Mol/L of ASM2 and a complement of liquid ASM1, which is also used as a fluidizing agent.

[4] = Complexing constant Log K in methanol at 25° C.; type: binding
Procedure: K is the complexing constant of a CEM and a […] cation in methanol, at 25° C., which is measured according to the standard method of isothermal calorimetric titration.

[5] = Extraction of salts from a brine, four extraction steps; details: 0.4M CEM1 + 1.2M ASM9 in 12ClPh; for Salinity progression at RT, Ca / Salinity progression at RT, Cl / Salinity progression at RT, K / Salinity progression at RT, Mg / Salinity progression at RT, Na: Org./Water 3, brine 180 g/Liter
From the text: as §1, §2, §3

[6] = Liquid-liquid extraction of mono-salt saline solution; details: for Extraction rate at room temperature (RT), BaCl2 / Extraction rate at room temperature (RT), CaCl2 / Extraction rate at room temperature (RT), KCl / Extraction rate at room temperature (RT), LiCl / Extraction rate at room temperature (RT), MgCl2 / Extraction rate at room temperature (RT), NaCl / Extraction rate at room temperature (RT), SrCl2: 0.1M CEM + 3.52M ASM2 in CH2Cl2, initial salt 0.1 mol/L, Org./Water = 1, molar %
From the text: The extracting composition is obtained by solubilizing an amount of CEM and ASM in the selected fluidizing agent, dichloromethane CH2Cl2, dichlorobenzene or dichlorotoluene or any other fluidizing agent able to well solubilize the mixture CEM/ASM in order to obtain the searched final concentrations after solubilizing CEMs and ASMs in a minimum of 3 milliliters of fluidizing agent. If the selected fluidizing agent is also an ASM compound, so the selected ASM volume is at least 3 milliliters. The given concentrations of ASM2 and ASM9 are related to the added fluidizing agent volume and the concentrations of CEM are related to the added fluidizing agent+ASM volume. The extracting organic composition is then lightly heated so as to promote the solubilization of the organic compounds by means of a heat gun (temperature around 50 to 60° C.) for a few seconds (10 to 30 seconds) until a clear solution is obtained. The composition is thus left for 24 hours at room temperature so as to make sure that the obtained formulation is stable.
These sealed formulations are then orbitally stirred at 500 revolutions/minute for two hours after adding an equivalent volume of water which was distilled twice so as to allow a water saturation of the whole formulation and a pH control at the inlet and at the outlet (pH close to 7, or at least maintained after contact with the saturation water).
3 mL of the prepared extracting organic composition are then taken from the lower phase of the decanted diphasic mixture and transferred to a vial containing 3 mL of the water containing the one or more considered chloride salts (NaCl or others), then the vial is sealed and orbitally stirred (at 500 revolutions per minute) for 2 hours at room temperature (RT), that is to say between 20 and 25° C.
A verification is made to make sure that droplets in the range of 1-2 mm are really present during these stirrings in order to be sure that an equilibrium in the distribution of the considered chloride salt (NaCl or other) is achieved between both liquid phases at the end of stirring. The aspect of the organic and aqueous phases is clear and colorless or slightly turbid.
Once the 2-hour stirring is carried out, the stirring is stopped and the whole is left for decantation for about 10 minutes, at least until both phases are completely separated, at the temperature of the assay. Then, the upper aqueous phase is taken then stirred and diluted in order to analyze its salinity by a ion chromatography (a Metrohm™ device including a cation analyzing column and an anion analyzing column suitable for the ions and for the concentration of the salts which are searched for). Likewise, the chloride salt (NaCl or other) initial aqueous solution is also analyzed by this ion chromatography to determine its cation and chloride molar relative concentration before the extraction. All the extractions and analyses were duplicated.
The considered extracting composition comprises 0.1 mol/L of CEM1 and 3.52 mol/L of ASM2 in dichloromethane CH2Cl2, which was obtained as described above. The initial concentration of the considered salt in water, whether it is LiCl, NaCl, KCl, MgCl2, CaCl2, SrCl2 or BaCl2, is 0.1 mol/L.
After carrying out these 7 specific extractions (duplicated) of salts, the amounts of extracted cations in relative molar percentage before and after extraction at room temperature and at water/extracting formulation iso-volume are indicated in table I: […]

[7] = after Extract 4, expressed in g/Liter
[8] = mono-salt solutions, 0.1M CEM + 3.52M ASM2 in CH2Cl2, RT

SMILES: OC(c1cccc(C(F)(F)F)c1)c1cccc(C(F)(F)F)c1 [ASM8]
- Solubility in water [1]: 70 µM (≈ 22.4 µg/mL)

SMILES: CCN(CC)C(=O)COc1c2cc(C(C)(C)C)cc1Cc1cc(C(C)(C)C)cc(c1OCC(=O)N(CC)CC)Cc1cc(C(C)(C)C)cc(c1OCC(=O)N(CC)CC)Cc1cc(C(C)(C)C)cc(c1OCC(=O)N(CC)CC)C2 [CEM1, 4-tert-butyl-Calix[4]arene tetrakis(N,N-diethylacetamide)]
- Salinity progression at RT, Total ([2]; after Extract 1): 4466 mmol/L
- Salinity progression at RT, Total ([2]; after Extract 2): 3322 mmol/L
- Salinity progression at RT, Total ([2]; after Extract 3): 1553 mmol/L
- Salinity progression at RT, Total ([2]; after Extract 4): 685 mmol/L
- Equivalent4, Total [2, 7]: 23.70 g/L
- % E Ca^++ [3]: 10.0%
- % E Na^+ [3]: 88.0%
- Log K(Ba^++, MeOH, 25° C.) [4]: 7.2
- Log K(Ca^++, MeOH, 25° C.) [4]: > 9.0
- Log K(Cs^+, MeOH, 25° C.) [4]: 2.5
- Log K(K^+, MeOH, 25° C.) [4]: 5.8
- Log K(Li^+, MeOH, 25° C.) [4]: 4.0
- Log K(Mg^++, MeOH, 25° C.) [4]: < 1.2
- Log K(Na^+, MeOH, 25° C.) [4]: 7.9
- Log K(Rb^+, MeOH, 25° C.) [4]: 3.8
- Log K(Sr^++, MeOH, 25° C.) [4]: > 9.0
- Salinity progression at RT, Ca ([5]; after Extract 1): 495 mmol/L
- Salinity progression at RT, Cl ([5]; after Extract 1): 2703 mmol/L
- Salinity progression at RT, K ([5]; after Extract 1): 22.5 mmol/L
- Salinity progression at RT, Mg ([5]; after Extract 1): 83.4 mmol/L
- Salinity progression at RT, Na ([5]; after Extract 1): 1162 mmol/L
- Salinity progression at RT, Ca ([5]; after Extract 2): 492 mmol/L
- Salinity progression at RT, Cl ([5]; after Extract 2): 2292 mmol/L
- Salinity progression at RT, K ([5]; after Extract 2): 23.4 mmol/L
- Salinity progression at RT, Mg ([5]; after Extract 2): 86.4 mmol/L
- Salinity progression at RT, Na ([5]; after Extract 2): 429 mmol/L
- Salinity progression at RT, Ca ([5]; after Extract 3): 360 mmol/L
- Salinity progression at RT, Cl ([5]; after Extract 3): 1083 mmol/L
- Salinity progression at RT, K ([5]; after Extract 3): 13.9 mmol/L
- Salinity progression at RT, Mg ([5]; after Extract 3): 87.6 mmol/L
- Salinity progression at RT, Na ([5]; after Extract 3): 8.54 mmol/L
- Salinity progression at RT, Ca ([5]; after Extract 4): 114 mmol/L
- Salinity progression at RT, Cl ([5]; after Extract 4): 469 mmol/L
- Salinity progression at RT, K ([5]; after Extract 4): 3.65 mmol/L
- Salinity progression at RT, Mg ([5]; after Extract 4): 94.2 mmol/L
- Salinity progression at RT, Na ([5]; after Extract 4): 3.70 mmol/L
- Equivalent4, Ca [5, 7]: 4.57 g/L
- Equivalent4, Cl [5, 7]: 16.62 g/L
- Equivalent4, K [5, 7]: 0.14 g/L
- Equivalent4, Mg [5, 7]: 2.29 g/L
- Equivalent4, Na [5, 7]: 0.09 g/L
- Extraction rate at room temperature (RT), BaCl2 [6]: 46.1%
- Extraction rate at room temperature (RT), CaCl2 [6]: 59.4%
- Extraction rate at room temperature (RT), KCl [6]: 75.8%
- Extraction rate at room temperature (RT), LiCl [6]: 73.7%
- Extraction rate at room temperature (RT), MgCl2 [6]: 5.4%
- Extraction rate at room temperature (RT), NaCl [6]: 85.8%
- Extraction rate at room temperature (RT), SrCl2 [6]: 64.0%

SMILES: OCc1cc(C(F)(F)C(F)(F)C(F)(F)C(F)(F)F)cc(C(F)(F)C(F)(F)C(F)(F)C(F)(F)F)c1 [ASM3]
- Solubility in water [1]: 0.5 µM (≈ 0.272 µg/mL)

SMILES: OCc1cc(C(F)(F)F)cc(C(F)(F)F)c1 [ASM2, [3,5-Bis(Trifluoromethyl)phenyl]methanol]
- Solubility in water [1]: 2290 µM (≈ 559 µg/mL)

SMILES: OCc1cc(C(F)(F)F)c(C(F)(F)F)c(C(F)(F)F)c1 [ASM4]
- Solubility in water [1]: 390 µM (≈ 122 µg/mL)

SMILES: CCCC(O)c1cc(C(F)(F)F)cc(C(F)(F)F)c1 (stereo not shown) [ASM7]
- Solubility in water [1]: 480 µM (≈ 137 µg/mL)

SMILES: CC(O)c1cccc(C(F)(F)C(F)(F)C(F)(F)F)c1 (stereo not shown) [ASM5]
- Solubility in water [1]: 420 µM (≈ 122 µg/mL)

SMILES: CCOC(=O)COc1c2cc(C(C)(C)C)cc1Cc1cc(C(C)(C)C)cc(c1OCC(=O)OCC)Cc1cc(C(C)(C)C)cc(c1OCC(=O)OCC)Cc1cc(C(C)(C)C)cc(c1OCC(=O)OCC)C2 [CEM10, 4-tert-Butylcalix[4]arene-tetraacetic acid tetraethyl ester]
- Log K(Cs^+, MeOH, 25° C.) [4]: 2.7
- Log K(K^+, MeOH, 25° C.) [4]: 2.4
- Log K(Li^+, MeOH, 25° C.) [4]: 2.6
- Log K(Na^+, MeOH, 25° C.) [4]: 5.0
- Log K(Rb^+, MeOH, 25° C.) [4]: 3.1
- Extraction rate at room temperature (RT), BaCl2 [6]: 3.7%
- Extraction rate at room temperature (RT), CaCl2 [6]: 4.7%
- Extraction rate at room temperature (RT), KCl [6]: 14.4%
- Extraction rate at room temperature (RT), LiCl [6]: 5.5%
- Extraction rate at room temperature (RT), MgCl2 [6]: 5.1%
- Extraction rate at room temperature (RT), NaCl [6]: 66.2%
- Extraction rate at room temperature (RT), SrCl2 [6]: 5.9%
- Na/Ca selectivity [6, 8]: 14

SMILES: OCc1cccc(C(F)(F)F)c1 [ASM1, 3-(trifluoromethyl)benzyl alcohol]
- Solubility in water [1]: 32000 µM (≈ 5640 µg/mL)

SMILES: CCOC(=O)COc1c2cc(C(C)(C)C)cc1Cc1cc(C(C)(C)C)cc(c1OCC(=O)OCC)Cc1cc(C(C)(C)C)cc(c1OCC(=O)OCC)Cc1cc(C(C)(C)C)cc(c1OCC(=O)OCC)Cc1cc(C(C)(C)C)cc(c1OCC(=O)OCC)Cc1cc(C(C)(C)C)cc(c1OCC(=O)OCC)C2 [CEM12, 4-tert-Butylcalix[6]arene-hexaacetic acid hexaethyl ester]
- Extraction rate at room temperature (RT), BaCl2 [6]: 11.8%
- Extraction rate at room temperature (RT), CaCl2 [6]: 5.5%
- Extraction rate at room temperature (RT), KCl [6]: 55.7%
- Extraction rate at room temperature (RT), LiCl [6]: 9.0%
- Extraction rate at room temperature (RT), MgCl2 [6]: 5.4%
- Extraction rate at room temperature (RT), NaCl [6]: 29.6%
- Extraction rate at room temperature (RT), SrCl2 [6]: 4.6%
- K/Ca selectivity [6, 8]: 10.2
